The term inhibition denotes the relative decrease from the control value, in per cent.

The target of the assay is T1, human recombinant adrenergic α1D receptor (Homo sapiens, UniProt P25100).
T1 construct: expressed in transfected cells; host or cells: HEK-293
T1 sequence (P25100 1-572): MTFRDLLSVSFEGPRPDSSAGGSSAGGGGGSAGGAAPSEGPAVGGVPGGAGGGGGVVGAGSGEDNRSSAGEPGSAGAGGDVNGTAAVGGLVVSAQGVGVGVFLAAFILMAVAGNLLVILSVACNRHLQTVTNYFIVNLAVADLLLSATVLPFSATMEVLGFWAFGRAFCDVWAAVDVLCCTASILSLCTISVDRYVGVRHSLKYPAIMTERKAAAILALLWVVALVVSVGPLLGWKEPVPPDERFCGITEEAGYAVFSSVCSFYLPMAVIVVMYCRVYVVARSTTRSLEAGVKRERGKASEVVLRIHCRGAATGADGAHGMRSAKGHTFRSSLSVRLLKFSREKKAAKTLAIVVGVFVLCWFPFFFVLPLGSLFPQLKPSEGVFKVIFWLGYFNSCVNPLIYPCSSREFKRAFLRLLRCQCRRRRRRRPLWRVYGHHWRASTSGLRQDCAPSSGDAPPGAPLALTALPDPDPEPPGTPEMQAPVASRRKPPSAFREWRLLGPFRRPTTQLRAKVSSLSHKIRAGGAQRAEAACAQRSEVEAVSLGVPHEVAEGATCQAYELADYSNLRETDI
Nature of the assay: Radioligand binding, adrenergic α1D receptor ([3H]Prazosin). The note with it: 0.1 μM compound; HEK-293 cells; 0.6 nM [3H]Prazosin; read-out: Percentage inhibition of ligand binding, Adrenergic α1D. Here is the method: Compounds were incubated with 0.6 nM [3H]Prazosin for 60 min at 25° C. Non-specific binding was estimated in the presence of 10 μM phentolamine. Receptor proteins were filtered and washed, the filters were then counted to determine [3H]Prazosin specifically bound. Compounds were screened at 1 μM or lower, using 1% DMSO as vehicle. Biochemical assay results are presented as the percent inhibition of specific binding in Table 2.
As to `COc1ccc(-c2cscc2-n2c3c(c4cc(C)ccc42)CN(C)CC3)cc1` [Compound 37], the inhibition at 0.1 µM worked out at 79%.

As for `Cc1csc(-c2cscc2-n2c3c(c4cc(C)ccc42)CN(C)CC3)c1` [Compound 50], the inhibition at 0.1 µM was 51%.

Consider `Cc1ccc2c(c1)c1c(n2-c2cscc2-c2ccc(S(C)(=O)=O)cc2)CCN(C)C1` [Compound No. 76], for which the inhibition at 0.1 µM came to 73%.

For `Cc1ccc2c(c1)c1c(n2-c2cscc2-c2ccc(C)s2)CCN(C)C1` [Compound No. 79], the inhibition at 0.1 µM came to 53%.

`Cc1ccc2c(c1)c1c(n2-c2ccccc2-c2cccn2C)CCN(C)C1` [Compound No. 100, 2,8-dimethyl-5-(2-(1-methyl-1H-pyrrol-2-yl)phenyl)-2,3,4,5-tetrahydro-1H-pyrido[4,3-b]indole]: the inhibition at 0.1 µM amounted to 64%.

Turning to `Cc1ccc2c(c1)c1c(n2-c2cscc2-c2ccc3c(ccn3C)c2)CCN(C)C1` [Compound 33], the inhibition at 0.1 µM is 69%.

`Cc1ccc2c(c1)c1c(n2-c2cscc2-c2ccc3cnccc3c2)CCN(C)C1` [Compound No. 68]: the inhibition at 0.1 µM amounted to 68%.

Take `Cc1ccc2c(c1)c1c(n2-c2ccccc2-c2ccc3c(ccn3C)c2)CCN(C)C1` [Compound No. 85, 2,8-dimethyl-5-(2-(1-methyl-1H-indol-5-yl)phenyl)-2,3,4,5-tetrahydro-1H-pyrido[4,3-b]indole]: the inhibition at 0.1 µM amounted to 62%.

(Values after US20140155384A1, “COMPOUNDS AND METHODS OF TREATING DIABETES” (Medivation Technologies, Inc., priority 2011, published 2014).)
